Reference: the supplement of paper PMC4862054
“And” between values parts separate entries of the source, which are not always exact repeats. Equal entries are not always repeated.

Legend:
Conditions in all cases: incubation time: 72 h
[1] = test system: BT-549; assay: drug sensitivity score (DSS), CellTiter-Glo (DSS (AUC-based score)); higher = stronger drug effect (viability inhibition or cytotoxicity); extreme values may be limits of the assay
Procedure, shortened: (§1)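 Breast cancer cell lines were seeded in 20 µl suspension into 384-well plates already holding compound and incubated for 72 h. Each compound was tested at 5 concentrations in 10-fold steps across its own 10,000-fold range. Plates were normalised to 0.1 % DMSO and a positive kill control after CellTox Green and then CellTiter-Glo readings. The area under the fitted dose-response curve served as the basis for the drug sensitivity score.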

[2] = test system: BT-474; assay: as above
Procedure, shortened: as §1

[3] = test system: HCC1143; assay: as above
Procedure, shortened: as §1

[4] = test system: MDA-MB-231; assay: as above
Procedure, shortened: as §1

[5] = test system: MCF-10A; assay: as above
Procedure, shortened: as §1

[6] = test system: DU-4475; assay: as above
Procedure, shortened: as §1

[7] = test system: CAL-120; assay: as above
Procedure, shortened: as §1

[8] = test system: CAL-51; assay: as above
Procedure, shortened: as §1

[9] = test system: SK-BR-3; assay: as above
Procedure, shortened: as §1

[10] = test system: HCC1599; assay: as above
Procedure, shortened: as §1

[11] = test system: MDA-MB-468; assay: as above
Procedure, shortened: as §1

[12] = test system: HDQ-P1; assay: drug sensitivity score (DSS), CellTiter-Blue viability (DSS (AUC-based score)); higher = stronger viability inhibition; extreme values may be limits of the assay
Procedure: (§2)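 DSRT with the CellTiter-Blue (resazurin reduction) viability readout, fluorescence 560/590 nm, 72 h incubation. Plates were normalised to DMSO and benzethonium chloride controls. DSS is computed from the area under the fitted dose-response curve (5 or 9 concentrations).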

[13] = test system: BT-549; assay: as above
Procedure: as §2

[14] = test system: BT-474; assay: as above
Procedure: as §2

[15] = test system: CAL-85-1; assay: as above
Procedure: as §2

[16] = test system: MDA-MB-231; assay: as above
Procedure: as §2

[17] = test system: DU-4475; assay: as above
Procedure: as §2

[18] = test system: CAL-148; assay: as above
Procedure: as §2

[19] = test system: MDA-MB-436; assay: as above
Procedure: as §2

[20] = test system: MFM-223; assay: as above
Procedure: as §2

[21] = test system: MDA-MB-453; assay: as above
Procedure: as §2

[22] = test system: CAL-120; assay: as above
Procedure: as §2

[23] = test system: HCC1937; assay: as above
Procedure: as §2

[24] = test system: Hs578T; assay: as above
Procedure: as §2

[25] = test system: CAL-51; assay: as above
Procedure: as §2

[26] = test system: HCC1599; assay: as above
Procedure: as §2

Row | Structure (SMILES) | drug sensitivity score [1] | drug sensitivity score [2] | drug sensitivity score [3] | drug sensitivity score [4] | drug sensitivity score [5] | drug sensitivity score [6] | drug sensitivity score [7] | drug sensitivity score [8] | drug sensitivity score [9] | drug sensitivity score [10] | drug sensitivity score [11] | drug sensitivity score [12] | drug sensitivity score [13] | drug sensitivity score [14] | drug sensitivity score [15] | drug sensitivity score [16] | drug sensitivity score [17] | drug sensitivity score [18] | drug sensitivity score [19] | drug sensitivity score [20] | drug sensitivity score [21] | drug sensitivity score [22] | drug sensitivity score [23] | drug sensitivity score [24] | drug sensitivity score [25] | drug sensitivity score [26]
1 | CCn1c(-c2nonc2N)nc2cnc(Oc3cccc(NC(=O)c4ccc(OCCN5CCOCC5)cc4)c3)cc21 | 5.62 | 5.28 | 0 | 3.83 | 6.73 | 0.276 | 6.49 | 4.84 | 4.64 | 0 | 0 | – | – | – | – | – | – | – | – | – | – | – | – | – | – | –
2 | Cc1cc(Nc2cc(CN3CCOCC3)c3nc(C)c(Cc4ccc(Cl)cc4F)n3n2)n[nH]1 | – | – | – | – | – | – | – | – | – | – | – | 11.8 | 6.94 | 3.02 | 4.09 | 7.21 | 4.98 | 0 | 7.24 | 13.5 | 10.2 | 8.01 | 6.84 | 7.69 | 6.91 | 0
3 | N#Cc1ccc(COC[C@H]2O[C@@H](n3c(NCc4ccc(Cl)c(Cl)c4)nc4c(N)ncnc43)[C@H](O)[C@@H]2O)cc1 | 3.44 | 3.43 | 1.09 | 0 | 1.78 | 2.77 | 0 | 0 | 2.28 | 0 | 2.09 | 0 | 4.23 | 0 | 0 | 4.35 | 1.33 | 0 | 4.85 | 0 | 0 | 0 | 3.59 | 0 | 0 | 8.13
4 | COc1cc(O)c2c(c1)/C=C/C[C@H](O)[C@H](O)C(=O)/C=C\C[C@H](C)OC2=O [(5Z)-7-Oxozeaenol] | 14 | 7.43 | 2 | 9.42 | 9.62 | 20 | 4.12 | 4.7 | 2.34 | 3.26 | 9.6 | – | – | – | – | – | – | – | – | – | – | – | – | – | – | –
5 | COc1cc(OC2CCN(C)CC2)ccc1Nc1ncc2c(n1)n(C1CCCC1)c(=O)n2C [AZ 3146] | 0 | 2.51 | 0 | 0 | 2.22 | 0 | 0.593 | 5.98 | 4.5 | 1.58 | 2.06 | 0 | 0 | 0 | 1.25 | 3.65 | 1.56 | 4.7 | 0 | 0 | 3.31 | 0.478 | 0 | 0 | 8.18 | 0
6 | CNC(=O)c1cccc(-c2ccc3c(N4CCOC[C@@H]4C)nc(N4CCOC[C@@H]4C)nc3n2)c1 [AZD2014] | 15.3 | 8.78 | 12.7 | 8.36 | 10.3 | 7.74 | 14.9 | 17.4 | 18.4 | 0.92 | 11.4 | – | – | – | – | – | – | – | – | – | – | – | – | – | – | –
7 | CN(C)c1nc(N(C)C)nc(N(C)C)n1 [Altretamine] | 0 | 0 | 0 | 0 | 0 | 0 | 0 | 0 | 0 | 0 | 0 | 0 | 0 | 0 | 1.01 | 0 | 0 | 0 | 0 | 0 | 2.05 | 0 | 0 | 0 | 0 | 1.24
8 | COC(=O)c1ccc2c(c1)NC(=O)/C2=C(\Nc1ccc(N(C)C(=O)CN2CCN(C)CC2)cc1)c1ccccc1 [BIBF 1120] | – | – | – | – | – | – | – | – | – | – | – | 1.16 | 3.02 | 3.34 | 1.29 | 4.3 | 2.02 | 0 | 1.32 | 9.32 | 5.53 | 6.55 | 0 | 1.63 | 5.59 | 0
9 | Nc1cc(C(F)(F)F)c(-c2cc(N3CCOCC3)nc(N3CCOCC3)n2)cn1 [BKM-120] | – | – | – | – | – | – | – | – | – | – | – | 9.78 | 8.93 | 9.72 | 9.38 | 8.24 | 6.63 | 8.55 | 4.25 | 9.9 | 13.8 | 8.37 | 6.85 | 5.79 | 11.6 | 8.97
10 | O=C(/C=C/c1cccc(S(=O)(=O)Nc2ccccc2)c1)NO [Belinostat] | 9.61 | 14.9 | 11.6 | 14 | 10.8 | 15.9 | 13.1 | 18.6 | 18.3 | 12.1 | 14.7 | 11.8 | 8.08 | 11.8 | 12.2 | 12.5 | 15 | 17.1 | 12.2 | 12.7 | 22.4 | 19 | 12.3 | 8.1 | 10.6 | 14.6
11 | Nc1cc(C(F)(F)F)c(-c2cc(N3CCOCC3)nc(N3CCOCC3)n2)cn1 [Buparlisib] | 7.05 | 3.23 | 1.75 | 3 | 9.62 | 1.54 | 2.39 | 7.02 | 0 | 0 | 6.3 | – | – | – | – | – | – | – | – | – | – | – | – | – | – | –
12 | CNC(=O)c1ccc(N2C(=S)N(c3ccc(C#N)c(C(F)(F)F)c3)C(=O)C2(C)C)cc1F [Enzalutamide] | 0 | 0 | 0 | 0 | 0 | 0 | 0 | 6.69 | 0 | 0 | 0 | – | – | – | – | – | – | – | – | – | – | – | – | – | – | –
13 | CCOC(=O)CCNc1cc(N2CCc3ccccc3CC2)nc(-c2ccccn2)n1 [GSK-J4] | 22.2 | 12.1 | 12.5 | 14 | 12.1 | 13.5 | 10.7 | 21.5 | 10.7 | 12.1 | 19.9 | – | – | – | – | – | – | – | – | – | – | – | – | – | – | –
14 | Cc1cc(Nc2cc(CN3CCOCC3)c3nc(C)c(Cc4ccc(Cl)cc4F)n3n2)n[nH]1 [Gandotinib] | 6.71 | 6.22 | 2.62 | 7.43 | 3.4 | 0.384 | 3.77 | 9.68 | 3.64 | 0 | 9.64 | – | – | – | – | – | – | – | – | – | – | – | – | – | – | –
15 | COc1cc2ncnc(Nc3ccc(F)c(Cl)c3)c2cc1OCCCN1CCOCC1 [Gefitinib] | 0 | 0 | 0 | 0 | 17.7 | 0 | 0 | 0 | 10.1 | 0 | 5.4 | – | 2.48 and 0.865 | 9.05 and 8.8 | 8.75 and 10.2 | – | 0 | 2.15 and 4.81 | 0 | 0 | 3.14 and 5.26 | – | 0 | – | 0 | 2.82 and 3.43
16 | CCc1c2c(nc3ccc(OC(=O)N4CCC(N5CCCCC5)CC4)cc13)-c1cc3c(c(=O)n1C2)COC(=O)[C@]3(O)CC [Irinotecan] | 4 | 1.83 | 0 | 0 | 1.93 | 4.98 | 2.72 | 3.68 | 4.28 | 1.9 | 7.12 | – | – | 0 | 2.57 and 1.55 | – | 7.9 and 5.68 | 9.3 and 7.24 | – | – | – | 5.49 and 3.99 | 9.68 and 9.91 | 0 | 6.14 and 4.1 | –
17 | COC(=O)c1ccc2c(c1)NC(=O)/C2=C(\Nc1ccc(N(C)C(=O)CN2CCN(C)CC2)cc1)c1ccccc1 [Nintedanib] | 8.24 | 5.02 | 2.02 | 6.66 | 8.49 | 0 | 3.62 | 8.21 | 0 | 0 | 5.28 | – | – | – | – | – | – | – | – | – | – | – | – | – | – | –
18 | CNC(=O)c1ccc(N2C(=S)N(c3ccc(C#N)c(C(F)(F)F)c3)C(=O)C23CCC3)cc1F [RD162] | 0 | 3.77e-05 | 0 | 0 | 0 | 0 | 0 | 0 | 0 | 0 | 0 | – | – | – | – | – | – | – | – | – | – | – | – | – | – | –
19 | COc1cc2c(NC3CCN(C(C)C)CC3)nc(N3CCC(F)(F)CC3)nc2cc1OCCCN1CCCC1 [UNC0642] | 0 | 1.75 | 0 | 3.72 | 3.66 | 0 | 0 | 0 | 2.71 | 0 | 7.75 | – | – | – | – | – | – | – | – | – | – | – | – | – | – | –
